Assay results taken from publication PMC8347481, “Germacranolides from Carpesium divaricatum: Some New Data on Cytotoxic and Anti-Inflammatory Activity” (Molecules, 2021).
Read-outs that look alike come from different tables or passages of the source.

Columns and labels:
Caco-2 = assay: LDH cell viability assay, colon cancer cells; type: cell-based; details: Homo sapiens; for IC50: Caco-2, 24 h, LDH assay
Experimental: Normal prostate epithelial cells (PNT2), two prostate cancer cell lines (Du145 and PC3), human keratinocytes (HaCaT), two melanoma cell lines (A375 and HTB140) and two colon cancer cell lines (HT29 and Caco-2) were treated with 3 at a concentration range 1.0–50.0 µg/mL. Viability of the cells was estimated using lactate dehydrogenase (LDH) assay.
Cytotoxic activity of 3 was tested on human cancer and normal cells, grouped in three panels: prostate, skin and gastrointestinal. The prostate panel comprised prostate cancer cell lines DU145 (ATCC HTB-81) and PC3 (ATCC CRL-1435) and prostate normal epithelial cells PNT2 (ECACC 95012613). Melanoma cell lines A375 (ATCC CRL-1619) and HTB140 (ATCC Hs 294T) together with human keratinocytes HaCaT (obtained as a kind gift of Prof. Marta Michalik, Department of Cell Biology, Jagiellonian University) were included in the skin panel. Two colon cancer cell lines, namely Caco-2 (ATCC HTB-37) and HT29 (ATCC HTB-38), constituted the gastrointestinal panel. Du145 cells were grown in a modified Eagle’s medium with low (1.0 g/L) glucose concentration; HT29, PC3 and PNT-2 cells were grown in Dulbecco’s modified Eagle’s medium (DMEM) and F12 HAM Nutrient Mixture; Caco-2 cells were grown in modified Eagle’s medium with nonessential amino acids (NEAA); and melanoma cells and keratinocytes were maintained in modified Eagle’s medium with high (4.5 g/L) glucose concentration. The culture media contained antibiotics and 10% fetal bovine serum (FBS). All cultures were maintained at 37 °C in a humidified, 5% CO2-containing atmosphere.
The examined compound (3) was diluted in the culture media from freshly made stock solution in MeOH (10 mg/mL) to the working concentrations (from 0 to 50 μg/mL). Cell viability was determined as described previously. […] Then, the culture medium was replaced with the medium containing different concentrations of the assessed compound (1–50 μg/mL). After 24 h of incubation, the viability of the cells was determined using colorimetric lactate dehydrogenase (LDH) assay in comparison to the controls to which corresponding aliquots of MeOH diluted with culture media were added. Cells grown in the medium without the tested compound were used as control I (negative), and the positive control (control II) was obtained by incubation of the cells in the medium containing 1% Triton X-100. LDH released from the damaged cells into the cell culture medium was quantified by measuring the absorbance at 490 nm using a Synergy II Biotek microplate reader. Cytotoxicities of the examined compounds were calculated as follows: ((absorbance of the tested sample−absorbance of control I)/(absorbance of control II−absorbance of control I)) × 100. Results were means of three independent measurements (± SD). Doxorubicin (Ebewe Pharma G.m.b.H., Unterach, Austria) was used as a reference cytostatic drug.

[1] = tested on: normal and cancer cell lines (prostate, skin, gastrointestinal panels); assay: LDH cytotoxicity, whole panel of normal and cancer cell lines; type: cell-based; details: Homo sapiens; 24 h treatment, cell density 1.5 × 10^4; doxorubicin: except PC3 cells; read-out: IC50 range over the cell lines
Experimental: Cytotoxic activity of 3 was tested on human cancer and normal cells, grouped in three panels: prostate, skin and gastrointestinal. The prostate panel comprised prostate cancer cell lines DU145 (ATCC HTB-81) and PC3 (ATCC CRL-1435) and prostate normal epithelial cells PNT2 (ECACC 95012613). Melanoma cell lines A375 (ATCC CRL-1619) and HTB140 (ATCC Hs 294T) together with human keratinocytes HaCaT (obtained as a kind gift of Prof. Marta Michalik, Department of Cell Biology, Jagiellonian University) were included in the skin panel. Two colon cancer cell lines, namely Caco-2 (ATCC HTB-37) and HT29 (ATCC HTB-38), constituted the gastrointestinal panel. […]
The examined compound (3) was diluted in the culture media from freshly made stock solution in MeOH (10 mg/mL) to the working concentrations (from 0 to 50 μg/mL). Cell viability was determined as described previously. […] Then, the culture medium was replaced with the medium containing different concentrations of the assessed compound (1–50 μg/mL). After 24 h of incubation, the viability of the cells was determined using colorimetric lactate dehydrogenase (LDH) assay in comparison to the controls to which corresponding aliquots of MeOH diluted with culture media were added. […] LDH released from the damaged cells into the cell culture medium was quantified by measuring the absorbance at 490 nm using a Synergy II Biotek microplate reader. […]

HeLa cells = tested on: HeLa cells; set-up: method as in PMID 29751555; details: cell density 2 × 10^4, 96 h treatment; cited from earlier work

IC50 (Caco-2; value in parentheses, read-out: IC50 (IC50 µM) (converted)): 8.29 µM | IC50 (Caco-2; read-out: IC50): 3.88 ± 0.1 µg/mL
SMILES: C=C1C(=O)O[C@H]2[C@H]1[C@@H](O)[C@H](OC(=O)CC(C)C)[C@H](C)CCC(=O)[C@](C)(O)[C@@H]2OC(=O)C(C)C [Compound 3]
viability at 1 µg/mL (Caco-2; Caco-2, 1 µg/mL, 24 h, read-out: Cell Viability (%) ± SD): 52.8 ± 1.62% | viability at 3 µg/mL (Caco-2; Caco-2, 3 µg/mL, 24 h, read-out: Cell Viability (%) ± SD): 38.6 ± 2.35% | viability at 5 µg/mL (Caco-2; Caco-2, 5 µg/mL, 24 h, read-out: Cell Viability (%) ± SD): 15.1 ± 2.91% | viability at 10 µg/mL (Caco-2; Caco-2, 10 µg/mL, 24 h, read-out: Cell Viability (%) ± SD): 1.96 ± 2.7% | viability at 20 µg/mL (Caco-2; Caco-2, 20 µg/mL, 24 h, read-out: Cell Viability (%) ± SD): 0.31 ± 0.43% | viability at 30 µg/mL (Caco-2; Caco-2, 30 µg/mL, 24 h, read-out: Cell Viability (%) ± SD): 0% | viability at 50 µg/mL (Caco-2; Caco-2, 50 µg/mL, 24 h, read-out: Cell Viability (%) ± SD): 0% | IC50 [1]: 8.3 to 35 µM | IC50 (HeLa cells): 29.4 µM
